According to US7833972B2, “Proteins and use thereof” (Takeda Pharmaceutical Company Limited, priority 2002, dated 2010):
Structures can show the parent of a compound that is named as a salt.

Assays:
SST8-5 = assay: Expression of SST8-5 mRNA in 3T3-L1 cell by an insulin sensitizer (TaqMan PCR); assay type: cell-based, mouse; settings: 10 μM, 72 hours in differentiation medium in the presence of insulin; 36B4 mRNA internal standard
Procedure: Analysis of Expression of Novel Secretory or Membrane Protein Gene by an Insulin Sensitizer 3T3-L1 cell was inoculated into 6-well plate at 4×10^5 cells/well of cell number and incubated on DMEM (Invitrogen) medium containing 10% fetal bovine serum (Invitrogen) at 37° C. for 5 days. The medium was exchanged to a differentiation medium [DMEM medium containing 250 nM dexamethasone (Sigma), 0.5 mM 1-methyl-3-isobutyl xanthine (Wako Pure Chemical Industries, Ltd.), 10 μg/ml insulin (Sigma) and 10% fetal bovine serum]. In exchanging the medium to the differentiation medium, pioglitazone hydrochloride (10 μM, Takeda Pharmaceutical Company, Ltd.) which is an insulin sensitizer was added to the medium, and incubated for 72 hours in the presence of insulin. After completing incubation, the medium was washed with PBS (Invitrogen), and the cells were collected. Total RNA was gathered from the collected cells using RNAeasy kit (Qiagen) according to the instructions attached to the kit. Using the gathered total RNA, expression amounts of SST8-5 and mRNA of 36B4 which is used as internal standard were quantified by TaqMan PCR (Applied Biosystems). As a result, the expression amount of SST8-5 increased 2.4-fold by addition of pioglitazone hydrochloride as compared with control (pioglitazone hydrochloride free).

SST20-14 = assay: Expression of SST20-14 mRNA in 3T3-L1 cell by insulin resistance inducing factor (TaqMan PCR); assay type: cell-based, mouse
Procedure: Analysis of Expression of Novel Secretory or Membrane Protein Gene by Insulin Resistance Inducing Factor
3T3-L1 cell was inoculated into 6-well plate at 4×10^5 cells/well of cell number and incubated on DMEM (Invitrogen) medium containing 10% fetal bovine serum (Invitrogen) at 37° C. for 5 days. The medium was exchanged to a differentiation medium [DMEM medium containing 250 nM dexamethasone (Sigma), 0.5 mM 1-methyl-3-isobutyl xanthine (Wako Pure Chemical Industries, Ltd.), 10 μg/ml insulin (Sigma) and 10% fetal bovine serum] and further incubated for 24 hours. In exchanging the medium to the differentiation medium, each of TNF-α (Genzyme Techne) at the concentration of 1 nM, 100 pM and 10 pM was added to the medium at the same time. After completing incubation, the medium was washed with PBS (Invitrogen), and the cells were collected. Total RNA was gathered from the collected cells using RNAeasy kit (Qiagen) according to the instructions attached to the kit. Using the gathered total RNA, expression amounts of SST20-14 and mRNA of 36B4 which is used as internal standard were quantified by TaqMan PCR (Applied Biosystems).

3T3-L1 cell = assay: Differentiation of preadipocyte strain 3T3-L1 into mature adipocyte (oil red-O staining of lipid drop accumulation); assay type: cell-based; settings: 3T3-L1 cell overexpressing SST20-14 (pCMV-SST20-14, Long form cDNA); differentiation medium 72 hours then 8 days; qualitative, microscopic observation
Procedure: Analysis of Action for Differentiation of Preadipocyte Strain 3T3-L1 into Mature Adipocyte
3T3-L1 cell was inoculated into 6-well plate at 2×10^5 cells/well of cell number, and incubated on DMEM (Invitrogen) medium containing 10% fetal bovine serum (Invitrogen) at 37° C. for 7 days, incubation solution was suctioned, and the well was washed twice with PBS (Invitrogen), and then 2 ml/well of OPTI-MEM (Invitrogen) was added thereto. OPTI-MEM (100 μl) and FuGENE™6 (10 μl, Roche) were mixed and stood still at room temperature for 5 minutes. Thereto was added […] of construct for expression pCMV-SST20-14 prepared by inserting SST20-14 (Long form) cDNA into EcoRI-HindIII cloning site of pCMV-Tag4A (Sigma) which is an expression plasmid, and the mixed solution was stood still at room temperature for 45 minutes. The solution containing the expression construct was added to the above-mentioned 3T3-L1 cell, and incubated at 37° C. for 6 hours, and then incubated on DMEM medium containing 10% fetal bovine serum at 37° C. for 40 hours. Then, the medium was exchanged to a differentiation medium [DMEM medium containing 250 nM dexamethasone (Sigma), 0.5 mM 1-methyl-3-isobutyl xanthine (Wako Pure Chemical Industries, Ltd.), 10 μg/ml insulin (Sigma) and 10% fetal bovine serum] and incubated for 72 hours. […]

CCc1ccc(CCOc2ccc(CC3SC(=O)NC3=O)cc2)nc1 (stereo not shown) [pioglitazone hydrochloride]
increase of expression amount of SST8-5 as compared with control (pioglitazone hydrochloride free) (SST8-5): 2.4 fold

TNF-α
reduction of expression amount of SST20-14 as compared with control (TNF-α free) (SST20-14; 1 nM TNF-α for 24 hours in differentiation medium, 36B4 mRNA internal standard): about 70%
change of expression amount of SST20-14 with TNF-α concentration (SST20-14; TNF-α 1 nM, 100 pM and 10 pM, 24 hours in differentiation medium): changed depending on added TNF-α concentration

B1: SST20-14: mouse white adipose tissue-derived secretory or membrane protein, SEQ ID NO: 2; overexpressed from pCMV-SST20-14 construct (protein, listed as Mus musculus)
chain: MAGSRGLPLLLLVLQLFLGPVLPVRAPVFGRSDTPTLSPEENEFVEEENQPVLVLSSEEPEPGPATVDCPRDCACSQEGVVDCGGIDLREFPGDLPEHTNHLSLQNNQLEKIYPEELSRLQRLETLNLQNNRLTSRGLPEEAFEHLTSLNYLYLANNKLTLAPRFLPNALISVDFAANYLTKIYGLTFGQKPNLRSVYLHNNKLADAGLPDHMFNGSSNVEILILSSNFLRHVPKHLPPALYKLHLKNNKLEKIPPGAFSELSNLRELYLQNNYLTDEGLDNETFWKLSSLEYLDLSSTNLSRVPAGLPRSLVLLHLEKNAIQSVEADVLTPIRNLEYLLLHSNQLQAKGIHPLAFQGLKKLHTVHLYNNALERVPSGLPRRVRTLMILHNQITGIGREDFATTYFLEELNLSYNRITSPQMHRDAFRKLRLLRSLDLSGNRLQTLPPGLPKNVHVLKVKRNELAALARGALAGMAQLRELYLTGNRLRSRALGPRAWVDLAGLQLLDIAGNQLTEVPEGLPPSLEYLYLQNNKISAVPANAFDSTPNLKGIFLRFNKLAVGSVVESAFRRLKHLQVLDIEGNFEFGNGSKDKDEEEEEEEEEEDEEEETR
accumulation of lipid drop as compared with control 3T3-L1 cell (3T3-L1 cell): reduced to a half or less
